The numbers were not newly measured in patent EP0700285B1, “A DRUG DELIVERY COMPOSITION FOR ALPHA-ADRENO RECEPTOR BLOCKING AGENTS” (SYNTHELABO, priority 1993, dated 1994), which cites them from elsewhere.

For `COc1cc2nc(N(C)CCCNC(=O)C3CCCO3)nc(N)c2cc1OC` (centres unmarked) [alfuzosin], under “after intravenous administration”, the “plasma elimination half life (mean)” value is 4.8 h. In addition, where the note is “after oral administration”, the mean half life was 4.8 h. Moreover, the mean oral bioavailability (immediate release dosage form) is listed as 64%. For the same compound, for the setting “in vivo”, the “parent compound excreted unchanged in the urine” value is reported as 11% and the volume of distribution is reported as 2.5 L/kg.
